From patent US20110124523A1, “High Throughput Method for Detecting Apoptosis of Embryonic Stages of Metazoan Helminthic Parasites” (INSTITUTE OF LIFE SCIENCES, priority 2009, published 2011)
Values joined by “and” are separate entries in the source; they are usually repeats but may differ in a detail not shown here. Equal entries are not always repeated.

How the values were obtained:
[1] = tested on: embryonic stages of S. digitata; assay: Intra cellular expression of CED-4 protein, flow cytometry; assay type: cell-based, Setaria digitata; settings: 24 hr
Procedure: Adult female filarial worms Setaria digitata were collected from the peritoneum of cattle, slaughtered at a nearby abattoir in sterile Hanks Balanced Salt Solution (HBSS) medium (Sigma H 2387-1L) and transported to the laboratory in a sterile container. The medium containing 1% glucose (Sigma G 7528), Penicillin 100 units/ml, Streptomycin 100 μg/ml (Sigma P 4333). And Amphotericin-B 0.25 μg/ml (Sigma A 2942) was buffered with NaHCO3 (Sigma S 5761). About 5 to 7 worms were taken in a petridish, washed three times in medium, dissected into small pieces in 10 ml of medium under sterile conditions and incubated at 37° C. for 30 minutes to allow the release of embryonic stages (eggs and microfilariae) into the medium. The embryonic stages were harvested into sterile 15 ml. centrifuge tubes and washed three times by centrifuging at 300 g for 10 minutes each with medium and the final pellet was suspended in 1 ml. of RPMI-1640 medium (Sigma R 8005) supplemented with 10% FBS (Sigma F 2442) The number of embryonic stages of S. digitata in the above preparation were counted using light microscope, and the suspension was taken in RPMI-1640 medium containing 10% FBS at 1×10^5 embryonic stages/ml. One ml. each was dispensed into individual wells of a 24 well tissue culture plate. One set of wells was taken as untreated control containing only medium with 10% FBS. […] Motility of the Mf was scored under an inverted microscope. After appropriate treatment and incubation, each set of the cultured embryonic stages of S. digitata were harvested from the 24 well tissue culture plate separately in 15 ml. sterile centrifuge tubes, washed with PBS twice and stained as per requirement following manufacturer's instructions as described below. This was followed by two times washing with PBS and final suspension of the stained embryonic stages was taken in 0.5 ml of sheath fluid (BD Biosciences 342003) before their acquisition in the flow cytometer (BD FACS Calibur, Becten and Dickinson, USA). Analysis was performed on 10,000-acquired events depicted as Dot Plots and Histogram Plots using Cellquest Pro soft ware. All plots were representative of at least 3 experiments. The distinctly clustered populations obtained consistently in the Dot plots for the intra uterine embryonic stages of S. digitata (FIG. 1 a) were gated for Mfs (R-1) and eggs (R-2 and R-3) and analyzed for different assays for apoptosis as described below. After in vitro culture for 24 hours with apoptosis inducing reagents the embryonic stages were harvested in 15 ml. sterile centrifuge tubes and fixed for 60 minutes at 0° C. in 1% paraformaldehyde (Sigma P 6148) in PBS. The suspension was washed first with PBS and then with 1× permeabilisation buffer (eBioscience 00-8333-56) and finally resuspended in 100 μl of 1× permeabilisation buffer at 1×10^5 embryonic stages per ml. The intracellular expression of CED-4 was scored by incubation of the fixed and permeabilised embryonic stages with primary goat antibodies—anti CED-4 (Santacruz sc-9193) followed by probing with PE conjugated secondary anti goat IgG-PE (Santacruz sc-3747) antibodies. Incubation of both primary and secondary antibodies (both 1/100 diluted) was done successively in 1× permeabilisation buffer (e Bioscience 00-8333-56) for 1 hr and 45 minutes respectively. The suspension of stained embryonic stages was then washed with PBS twice and finally reading was taken by flow cytometry or confocal microscopy.

[2] = tested on: embryonic stages of S. digitata; assay: Intra cellular expression of CED-3 protein, flow cytometry; assay type: cell-based, Setaria digitata; settings: 24 hr
Procedure: Adult female filarial worms Setaria digitata were collected from the peritoneum of cattle, slaughtered at a nearby abattoir in sterile Hanks Balanced Salt Solution (HBSS) medium (Sigma H 2387-1L) and transported to the laboratory in a sterile container. The medium containing 1% glucose (Sigma G 7528), Penicillin 100 units/ml, Streptomycin 100 μg/ml (Sigma P 4333). And Amphotericin-B 0.25 μg/ml (Sigma A 2942) was buffered with NaHCO3 (Sigma S 5761). About 5 to 7 worms were taken in a petridish, washed three times in medium, dissected into small pieces in 10 ml of medium under sterile conditions and incubated at 37° C. for 30 minutes to allow the release of embryonic stages (eggs and microfilariae) into the medium. The embryonic stages were harvested into sterile 15 ml. centrifuge tubes and washed three times by centrifuging at 300 g for 10 minutes each with medium and the final pellet was suspended in 1 ml. of RPMI-1640 medium (Sigma R 8005) supplemented with 10% FBS (Sigma F 2442) The number of embryonic stages of S. digitata in the above preparation were counted using light microscope, and the suspension was taken in RPMI-1640 medium containing 10% FBS at 1×10^5 embryonic stages/ml. One ml. each was dispensed into individual wells of a 24 well tissue culture plate. One set of wells was taken as untreated control containing only medium with 10% FBS. […] Motility of the Mf was scored under an inverted microscope. After appropriate treatment and incubation, each set of the cultured embryonic stages of S. digitata were harvested from the 24 well tissue culture plate separately in 15 ml. sterile centrifuge tubes, washed with PBS twice and stained as per requirement following manufacturer's instructions as described below. This was followed by two times washing with PBS and final suspension of the stained embryonic stages was taken in 0.5 ml of sheath fluid (BD Biosciences 342003) before their acquisition in the flow cytometer (BD FACS Calibur, Becten and Dickinson, USA). Analysis was performed on 10,000-acquired events depicted as Dot Plots and Histogram Plots using Cellquest Pro soft ware. All plots were representative of at least 3 experiments. The distinctly clustered populations obtained consistently in the Dot plots for the intra uterine embryonic stages of S. digitata (FIG. 1 a) were gated for Mfs (R-1) and eggs (R-2 and R-3) and analyzed for different assays for apoptosis as described below. After in vitro culture for 24 hours with apoptosis inducing reagents the embryonic stages were harvested in 15 ml, sterile centrifuge tubes and fixed for 60 minutes at 0° C. in 1% paraformaldehyde (Sigma P 6148) in PBS. The suspension was washed first with PBS and then with 1× permeabilisation buffer (eBioscience 00-8333-56) and finally resuspended in 100 μl of 1× permeabilisation buffer at 1×10^5 embryonic stages per ml. The intra cellular expression of CED-3 was scored by incubation of the fixed and permeabilised embryonic stages with primary goat antibodies—anti CED-3 (Santacruz sc-9192) followed by Probing with PE conjugated secondary anti goat IgG-PE (Santacruz sc-3747) antibodies. Incubation of both primary and secondary antibodies (both 1/100 diluted) was done successively in 1× permeabilisation buffer (e Bioscience 00-8333-56) for 1 hr and 45 minutes respectively. The suspension of stained embryonic stages was then washed with PBS twice and finally reading was taken by flow cytometry.

| SMILES | GMI (Geometric Mean Intensity) of Fluorescence, CED-4 Expression ([1]; Eggs, 10 μM) | GMI (Geometric Mean Intensity) of Fluorescence, CED-4 Expression ([1]; Microfilariae, 10 μM) | GMI (Geometric Mean Intensity) of Fluorescence, CED-3 Expression ([2]; Eggs, 10 μM) | GMI (Geometric Mean Intensity) of Fluorescence, CED-3 Expression ([2]; Microfilariae, 10 μM) | GMI (Geometric Mean Intensity) of Fluorescence, CED-4 Expression ([1]; Eggs, 1 μM) | GMI (Geometric Mean Intensity) of Fluorescence, CED-4 Expression ([1]; Microfilariae, 1 μM) | GMI (Geometric Mean Intensity) of Fluorescence, CED-3 Expression ([2]; Eggs, 1 μM) | GMI (Geometric Mean Intensity) of Fluorescence, CED-3 Expression ([2]; Microfilariae, 1 μM) |
| --- | --- | --- | --- | --- | --- | --- | --- | --- |
| OO [H2O2] | 99.36 and 100.32 and 95.29 | 15.72 and 17.33 and 16.26 | 98.25 and 100.22 and 97.56 | 10.99 and 12.38 and 9.95 |  |  |  |  |
| CC1=CC(=O)c2c(O)cccc2C1=O [Plumbagin] | 209.76 and 213.57 and 210.32 | 35.97 and 38.27 and 33.39 | 205.26 and 207.37 and 200.17 | 32.75 and 34.96 and 31.33 |  |  |  |  |
| CN[C@@H]1C[C@H]2O[C@@](C)([C@@H]1OC)n1c3ccccc3c3c4c(c5c6ccccc6n2c5c31)C(=O)NC4 [Staurosporine] |  |  |  |  | 95.67 and 97.28 and 96.32 | 9.01 and 9.92 and 8.25 | 92.71 and 96.07 and 90.32 | 8.33 and 8.10 and 7.39 |
